From patent publication US4396613A, “23-Ester derivatives of DMT and method of using same” (Eli Lilly and Company, priority 1981, dated 1983)
Values after ≈ are worked out from the molar mass of the structure shown.

Key:
Format in all cases: cell-based
[1] = tested on: Mycoplasma hyorhinis; experiment: conventional broth-dilution microtiter test (MIC); conditions: unit assumed
Description: (§1) The MIC's in Table II were determined by standard agar-dilution assays. The MIC's in Table III were obtained using a conventional broth-dilution microtiter test.

[2] = tested on: Staphylococcus aureus; experiment: conventional broth-dilution microtiter test (MIC); conditions: unit assumed
Description: as §1

[3] = tested on: Mycoplasma synoviae; experiment: conventional broth-dilution microtiter test (MIC); conditions: unit assumed
Description: as §1

[4] = tested on: Pasteurella multocida 17E; experiment: conventional broth-dilution microtiter test (MIC); conditions: bovine isolate, unit assumed
Description: as §1

[5] = tested on: Streptococcus sp. 80; experiment: conventional broth-dilution microtiter test (MIC); conditions: unit assumed
Description: as §1

[6] = tested on: Pasteurella multocida 60A; experiment: conventional broth-dilution microtiter test (MIC); conditions: avian isolate, unit assumed
Description: as §1

[7] = tested on: Mycoplasma gallisepticum; experiment: conventional broth-dilution microtiter test (MIC); conditions: unit assumed
Description: as §1

[8] = tested on: Staphylococcus aureus V41; experiment: standard agar-dilution assay (MIC); conditions: Staphylococcus aureus V41, penicillin-resistant strain, unit assumed
Description: as §1
^b Penicillinresistant strain

[9] = tested on: Staphylococcus aureus X400; experiment: standard agar-dilution assay (MIC); conditions: Staphylococcus aureus X400, methicillin-resistant strain, unit assumed
Description: as §1
^c Methicillinresistant-strain

[10] = tested on: Streptococcus pneumoniae Park I; conditions: agar dilution, unit assumed
Description: as §1

[11] = tested on: Streptococcus Group D X66; experiment: standard agar-dilution assay (MIC); conditions: unit assumed
Description: as §1

[12] = tested on: Haemophilus influenzae R252; experiment: standard agar-dilution assay (MIC); conditions: Haemophilus influenzae R252, ampicillin-resistant strain, unit assumed
Description: as §1

[13] = tested on: Haemophilus influenzae Holt; experiment: standard agar-dilution assay (MIC); conditions: ampicillin-sensitive strain, unit assumed
Description: as §1

[14] = tested on: Staphylococcus aureus S13E; experiment: standard agar-dilution assay (MIC); conditions: unit assumed
Description: as §1

[15] = tested on: Streptococcus Group 9960; experiment: standard agar-dilution assay (MIC); conditions: unit assumed
Description: as §1

[16] = tested on: Staphylococcus aureus X1.1; experiment: standard agar-dilution assay (MIC); conditions: unit assumed
Description: as §1

[17] = tested on: Staphylococcus epidermidis EPI2; experiment: standard agar-dilution assay (MIC); conditions: unit assumed
Description: as §1

[18] = tested on: Streptococcus pyogenes C203; experiment: standard agar-dilution assay (MIC); conditions: unit assumed
Description: as §1

[19] = tested on: Staphylococcus epidermidis EPI1; experiment: standard agar-dilution assay (MIC); conditions: unit assumed
Description: as §1

Structure (SMILES) | MIC [1] | MIC [2] | MIC [3] | MIC [4] | MIC [5] | MIC [6] | MIC [7] | MIC [8] | MIC [9] | MIC [10] | MIC [11] | MIC [12] | MIC [13] | MIC [14] | MIC [15] | MIC [16] | MIC [17] | MIC [18] | MIC [19]
CCC(=O)OC1C(OC2C(CC=O)CC(C)C(=O)C=CC(C)=CC(COC(C)=O)C(CC)OC(=O)CC(O)C2C)OC(C)C(OC2CC(C)(O)C(O)C(C)O2)C1N(C)C (centres unmarked) [Compound 6, 23-O-Acetyl-2'-O-propionyl-DMT] | 0.78 µg/mL (≈ 0.929 µM) | 0.78 µg/mL (≈ 0.929 µM) | 0.195 µg/mL (≈ 0.232 µM) | 6.25 µg/mL (≈ 7.44 µM) | 0.39 µg/mL (≈ 0.464 µM) | 12.5 µg/mL (≈ 14.9 µM) | 0.39 µg/mL (≈ 0.464 µM) | 0.5 µg/mL (≈ 0.595 µM) | 2 µg/mL (≈ 2.38 µM) | 0.125 µg/mL (≈ 0.149 µM) | 1 µg/mL (≈ 1.19 µM) | 16 µg/mL (≈ 19 µM) | 16 µg/mL (≈ 19 µM) | 1 µg/mL (≈ 1.19 µM) | 1 µg/mL (≈ 1.19 µM) | 0.5 µg/mL (≈ 0.595 µM) | 1 µg/mL (≈ 1.19 µM) | 0.5 µg/mL (≈ 0.595 µM) | 1 µg/mL (≈ 1.19 µM)
CCC1OC(=O)CC(O)C(C)C(OC2OC(C)C(OC3CC(C)(O)C(O)C(C)O3)C(N(C)C)C2OC(C)=O)C(CC=O)CC(C)C(=O)C=CC(C)=CC1COC(=O)OC (centres unmarked) [Compound 24] | 1.56 µg/mL (≈ 1.85 µM) | 3.12 µg/mL (≈ 3.71 µM) | 0.78 µg/mL (≈ 0.926 µM) | 6.25 µg/mL (≈ 7.42 µM) | 0.78 µg/mL (≈ 0.926 µM) | 12.5 µg/mL (≈ 14.8 µM) | 0.78 µg/mL (≈ 0.926 µM) | 0.5 µg/mL (≈ 0.594 µM) | 0.5 µg/mL (≈ 0.594 µM) | 0.06 µg/mL (≈ 0.0713 µM) | 0.5 µg/mL (≈ 0.594 µM) | 8 µg/mL (≈ 9.5 µM) | 16 µg/mL (≈ 19 µM) | 0.5 µg/mL (≈ 0.594 µM) | 0.5 µg/mL (≈ 0.594 µM) | 0.5 µg/mL (≈ 0.594 µM) | 0.5 µg/mL (≈ 0.594 µM) | 0.25 µg/mL (≈ 0.297 µM) | 0.5 µg/mL (≈ 0.594 µM)
CCC1OC(=O)CC(O)C(C)C(OC2OC(C)C(OC3CC(C)(O)C(O)C(C)O3)C(N(C)C)C2O)C(CC=O)CC(C)C(=O)C=CC(C)=CC1COC(=O)N1CCC(O)CC1 (centres unmarked) [Compound 28] | 0.78 µg/mL (≈ 0.898 µM) | 1.56 µg/mL (≈ 1.8 µM) | 0.78 µg/mL (≈ 0.898 µM) | 12.5 µg/mL (≈ 14.4 µM) | 0.39 µg/mL (≈ 0.449 µM) | 25 µg/mL (≈ 28.8 µM) | 0.39 µg/mL (≈ 0.449 µM) | 1 µg/mL (≈ 1.15 µM) | 2 µg/mL (≈ 2.3 µM) | 0.125 µg/mL (≈ 0.144 µM) | 1 µg/mL (≈ 1.15 µM) | 16 µg/mL (≈ 18.4 µM) | 8 µg/mL (≈ 9.21 µM) | 2 µg/mL (≈ 2.3 µM) | 1 µg/mL (≈ 1.15 µM) | 1 µg/mL (≈ 1.15 µM) | 2 µg/mL (≈ 2.3 µM) | 0.25 µg/mL (≈ 0.288 µM) | 0.5 µg/mL (≈ 0.575 µM)
CCC1OC(=O)CC(O)C(C)C(OC2OC(C)C(OC3CC(C)(O)C(O)C(C)O3)C(N(C)C)C2O)C(CC=O)CC(C)C(=O)C=CC(C)=CC1COC(=O)NCCN1CCOCC1 (centres unmarked) [Compound 29] | 6.25 µg/mL (≈ 6.96 µM) | 1.56 µg/mL (≈ 1.74 µM) | 1.56 µg/mL (≈ 1.74 µM) | 12.5 µg/mL (≈ 13.9 µM) | 0.78 µg/mL (≈ 0.868 µM) | 25 µg/mL (≈ 27.8 µM) | 0.39 µg/mL (≈ 0.434 µM) | 1 µg/mL (≈ 1.11 µM) | 4 µg/mL (≈ 4.45 µM) | 0.125 µg/mL (≈ 0.139 µM) | 2 µg/mL (≈ 2.23 µM) | 16 µg/mL (≈ 17.8 µM) | 16 µg/mL (≈ 17.8 µM) | 2 µg/mL (≈ 2.23 µM) | 2 µg/mL (≈ 2.23 µM) | 1 µg/mL (≈ 1.11 µM) | 2 µg/mL (≈ 2.23 µM) | 0.5 µg/mL (≈ 0.557 µM) | 1 µg/mL (≈ 1.11 µM)
CCC1OC(=O)CC(O)C(C)C(OC2OC(C)C(OC3CC(C)(O)C(O)C(C)O3)C(N(C)C)C2O)C(CC=O)CC(C)C(=O)C=CC(C)=CC1COC(=O)Cc1ccccc1 (centres unmarked) [Compound 10, 23-O-Phenylacetyl-DMT] | 1.56 µg/mL (≈ 1.81 µM) | 0.78 µg/mL (≈ 0.907 µM) | ≤ 0.048 µg/mL | 1.56 µg/mL (≈ 1.81 µM) | 0.097 µg/mL (≈ 0.113 µM) | 3.12 µg/mL (≈ 3.63 µM) | ≤ 0.048 µg/mL | 0.5 µg/mL (≈ 0.581 µM) | 0.5 µg/mL (≈ 0.581 µM) | 0.03 µg/mL (≈ 0.0349 µM) | 0.5 µg/mL (≈ 0.581 µM) | 2 µg/mL (≈ 2.33 µM) | 2 µg/mL (≈ 2.33 µM) | 0.25 µg/mL (≈ 0.291 µM) | 0.25 µg/mL (≈ 0.291 µM) | 0.25 µg/mL (≈ 0.291 µM) | 0.5 µg/mL (≈ 0.581 µM) | 0.125 µg/mL (≈ 0.145 µM) | 0.5 µg/mL (≈ 0.581 µM)
CCC1OC(=O)CC(O)C(C)C(OC2OC(C)C(OC3CC(C)(O)C(O)C(C)O3)C(N(C)C)C2O)C(CC=O)CC(C)C(=O)C=CC(C)=CC1COC(=O)NCCCO (centres unmarked) [Compound 26] | 6.25 µg/mL (≈ 7.41 µM) | 1.56 µg/mL (≈ 1.85 µM) | 0.39 µg/mL (≈ 0.463 µM) | 6.25 µg/mL (≈ 7.41 µM) | 0.39 µg/mL (≈ 0.463 µM) | 12.5 µg/mL (≈ 14.8 µM) | 0.78 µg/mL (≈ 0.925 µM) | 2 µg/mL (≈ 2.37 µM) | 4 µg/mL (≈ 4.74 µM) | 0.125 µg/mL (≈ 0.148 µM) | 2 µg/mL (≈ 2.37 µM) | – | 16 µg/mL (≈ 19 µM) | 4 µg/mL (≈ 4.74 µM) | 2 µg/mL (≈ 2.37 µM) | 1 µg/mL (≈ 1.19 µM) | 2 µg/mL (≈ 2.37 µM) | 0.25 µg/mL (≈ 0.297 µM) | 1 µg/mL (≈ 1.19 µM)
CCC1OC(=O)CC(O)C(C)C(OC2OC(C)C(OC3CC(C)(O)C(O)C(C)O3)C(N(C)C)C2OC(C)=O)C(CC=O)CC(C)C(=O)C=CC(C)=CC1COC(=O)C=Cc1ccccc1 (centres unmarked) [Compound 11] | 6.25 µg/mL (≈ 6.84 µM) | 1.56 µg/mL (≈ 1.71 µM) | 3.12 µg/mL (≈ 3.41 µM) | 12.5 µg/mL (≈ 13.7 µM) | 0.78 µg/mL (≈ 0.853 µM) | > 50 µg/mL | 0.39 µg/mL (≈ 0.427 µM) | 0.5 µg/mL (≈ 0.547 µM) | 2 µg/mL (≈ 2.19 µM) | 0.25 µg/mL (≈ 0.273 µM) | 2 µg/mL (≈ 2.19 µM) | 128 µg/mL (≈ 140 µM) | 128 µg/mL (≈ 140 µM) | 1 µg/mL (≈ 1.09 µM) | 2 µg/mL (≈ 2.19 µM) | 1 µg/mL (≈ 1.09 µM) | 4 µg/mL (≈ 4.38 µM) | 1 µg/mL (≈ 1.09 µM) | 1 µg/mL (≈ 1.09 µM)
CCC1OC(=O)CC(O)C(C)C(OC2OC(C)C(OC3CC(C)(O)C(O)C(C)O3)C(N(C)C)C2OC(C)=O)C(CC=O)CC(C)C(=O)C=CC(C)=CC1COC(=O)CCCCc1ccccc1 (centres unmarked) [Compound 18] | 12.5 µg/mL (≈ 13.2 µM) | 1.56 µg/mL (≈ 1.65 µM) | 6.25 µg/mL (≈ 6.62 µM) | 50 µg/mL (≈ 53 µM) | 0.78 µg/mL (≈ 0.826 µM) | > 50 µg/mL | < 0.05 µg/mL | 2 µg/mL (≈ 2.12 µM) | 2 µg/mL (≈ 2.12 µM) | 0.125 µg/mL (≈ 0.132 µM) | 2 µg/mL (≈ 2.12 µM) | > 128 µg/mL | > 128 µg/mL | 1 µg/mL (≈ 1.06 µM) | 1 µg/mL (≈ 1.06 µM) | 1 µg/mL (≈ 1.06 µM) | 2 µg/mL (≈ 2.12 µM) | 0.5 µg/mL (≈ 0.53 µM) | 1 µg/mL (≈ 1.06 µM)
CCC1OC(=O)CC(O)C(C)C(OC2OC(C)C(OC3CC(C)(O)C(O)C(C)O3)C(N(C)C)C2OC(C)=O)C(CC=O)CC(C)C(=O)C=CC(C)=CC1COC(=O)C12CC3CC(CC(C3)C1)C2 (centres unmarked) [Compound 23] | 25 µg/mL (≈ 26.4 µM) | 6.25 µg/mL (≈ 6.61 µM) | 1.56 µg/mL (≈ 1.65 µM) | 50 µg/mL (≈ 52.8 µM) | < 0.78 µg/mL | > 50 µg/mL | 6.25 µg/mL (≈ 6.61 µM) | 2 µg/mL (≈ 2.11 µM) | 2 µg/mL (≈ 2.11 µM) | 1 µg/mL (≈ 1.06 µM) | 4 µg/mL (≈ 4.23 µM) | > 128 µg/mL | > 128 µg/mL | 2 µg/mL (≈ 2.11 µM) | 4 µg/mL (≈ 4.23 µM) | 2 µg/mL (≈ 2.11 µM) | 4 µg/mL (≈ 4.23 µM) | 2 µg/mL (≈ 2.11 µM) | 2 µg/mL (≈ 2.11 µM)
